# Data taken from patent publication EP0292365A2, “4-Amino-5,8-quinazolindione derivatives, process for their preparation and pharmaceutical compositions containing them” (CENTRE NATIONAL DE LA RECHERCHE SCIENTIFIQUE, priority 1987, dated 1988).
# Tested on: cellules de lignée HBL
# Experiment: Effect on in vitro cell growth, HBL line (Feulgen staining, automated scanning microscopy)
# Format: cell-based, humaine
# Conditions: for nombre de cellules observées par champ de microscope: HBL
# Method: Les cellules tumorales en croissance exponentielle sont ensemencées (10.000 cellules/ml) dans des boîtes à Petri contenant au fond de la boîte un couvre-objet (18 x 18 mm) et 3 ml de MEM (MEM = milieu essentiel minimum) + 5 % FCS (FCS = serum de veau fetal) (v/v). Après 24 heures d'incubation, quand les cellules sont bien attachées au fond de la boîte, le milieu est remplacé par MEM expérimental contenant 5 % FCS (v/v) et enrichi, par exemple de : • a) 3 ml du milieu (MEM + 5 % FCS) = témoins • b) 3 ml du milieu contenant une dose élevée du composé à tester : 10 µg/ml : (M) • c) milieu contenant une faible dose du composé à tester : 0.01 µg/ml (f) respectivement aux jours 1, 2, 3 et 4 après addition du milieu expérimental dans les boîtes de Petri. Trois couvre-objets sont fixés pour chaque condition expérimentale : éthanol 95° (75 v), formol neutre à 40 % (20 v), acide acétique (5 v), pendant 10 minutes. Les cellules témoins cultivées dans le milieu expérimental sans le produit à tester sont fixées au même moment. A la fin de la fixation, les couvre-objets sont retournés et montés sur des lames histologiques à l'aide de produit commercialisé sous la marque DPX par la Société British Drug House et conservés à l'abri de la lumière et à 4° en attendant d'être colorés.
# Les lames avec les couvre-objets sont colorées par une réaction de Feulgen modifiée. Toutes les lames d'une condition expérimentale sont conditionnées par le réactif de Feulgen en même temps, pendant une heure, après hydrolyse dans un milieu HCI 6N pendant une heure à 20° C. Les préparations cellulaires sont ensuite conservées à l'abri de la lumière et à 4°C en attendant l'analyse.
# Grâce à un système d'analyse microscopique à balayage automatique, on détermine l'effet de la drogue sur la croissance cellulaire, au cours du temps, sur deux lignées cellulaires tumorales d'origine humaine : la lignée MCF-7 d'origine mammaire et la lignée HBL (mélanome malin).
# On a représenté dans le tableau C les résultats relatifs à l'action du composé 63 sur la croissance des cellules de lignée MCF-7 et dans le tableau C BIS, les résultats relatifs à l'action du composé 63 sur la croissance des cellules de lignée HBL. Ces résultats montrent le nombre de cellules survivant au traitement après 1, 2, 3 et 4 jours d'incubation et à trois doses différentes (10 µg/ml, 1 µg/ml et 0,1 µg/ml).
# Chaque chiffre correspond au nombre de cellules observées par champ de microscope.
compound,measurement,setting,value
CN(C)CCCNc1ncnc2c1C(=O)C(N1CC1)=C(N1CC1)C2=O [composé 63],nombre de cellules observées par champ de microscope,"0.1µg/ml (f), 1j",402±100 ns
same,nombre de cellules observées par champ de microscope,"0.1µg/ml (f), 2j",233± 36
same,nombre de cellules observées par champ de microscope,"0.1µg/ml (f), 3j",633± 83 ns
same,nombre de cellules observées par champ de microscope,"0.1µg/ml (f), 4j",474±265 ns
same,nombre de cellules observées par champ de microscope,"1µg/ml (M), 1j",282± 17 ns
same,nombre de cellules observées par champ de microscope,"1µg/ml (M), 2j",187± 35
same,nombre de cellules observées par champ de microscope,"1µg/ml (M), 3j",199± 71
same,nombre de cellules observées par champ de microscope,"1µg/ml (M), 4j",197± 67
same,nombre de cellules observées par champ de microscope,"10µg/ml (F), 1j",318± 83 ns
same,nombre de cellules observées par champ de microscope,"10µg/ml (F), 2j",166± 28
same,nombre de cellules observées par champ de microscope,"10µg/ml (F), 3j",553±100 ns
same,nombre de cellules observées par champ de microscope,"10µg/ml (F), 4j",210± 48
same,croissance des cellules HBL,"à moyenne et forte dose, summary of tableau C BIS",ralentit faiblement la croissance
